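Compound exposure: 48 hours, 5 concentrations, 96-well plates. GI50 = concentration required for 50% inhibition of growth.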 Active and inactive are the calls of the source. Cut-off read from the data, not from the text of the source: active = GI50 up to about 1.1 µM and inactive = higher.
Key:
Experiment in all cases: NCI-60 cell line screen, 48 h
[1] = tested on: Malme-3M
[2] = tested on: A498
[3] = tested on: HCT-15
[4] = tested on: HCC 2998
[5] = tested on: SN12C
[6] = tested on: SK-MEL-5
[7] = tested on: NCI-H460
[8] = tested on: SR
[9] = tested on: HOP-92
[10] = tested on: OVCAR-5
[11] = tested on: NCI-H522
[12] = tested on: CCRF-CEM
[13] = tested on: HL-60
[14] = tested on: ACHN
[15] = tested on: NCI-H23
[16] = tested on: SK-OV-3
[17] = tested on: SF-295
[18] = tested on: NCI-H226
[19] = tested on: SNB-19
[20] = tested on: U-251

Compound | GI50 [1] | GI50 [2] | GI50 [3] | GI50 [4] | GI50 [5] | GI50 [6] | GI50 [7] | GI50 [8] | GI50 [9] | GI50 [10] | GI50 [11] | GI50 [12] | GI50 [13] | GI50 [14] | GI50 [15] | GI50 [16] | GI50 [17] | GI50 [18] | GI50 [19] | GI50 [20]
CC(=O)NC1C(O)C(O)C(CO)OC1n1ncc(=O)[nH]c1=O (stereo unspecified) | > 100 µM (inactive) | > 100 µM (inactive) | > 100 µM | > 100 µM (inactive) | > 100 µM (inactive) | > 100 µM (inactive) | > 100 µM (inactive) | > 100 µM (inactive) | > 100 µM (inactive) | > 100 µM (inactive) | > 100 µM (inactive) | > 100 µM (inactive) | > 100 µM (inactive) | > 100 µM (inactive) | > 100 µM (inactive) | > 100 µM (inactive) | > 100 µM (inactive) | > 100 µM (inactive) | > 100 µM (inactive) | > 100 µM (inactive)
COc1ccc(C(=O)/C=C/c2cc(O)c(O)c(F)c2F)c(OC)c1 | 15.5 µM (inactive) | 20.1 µM (inactive) | 4.99 µM | 4.75 µM (inactive) | 10.3 µM (inactive) | 11.5 µM (inactive) | 4.45 µM (inactive) | 4.24 µM (inactive) | 46.7 µM (inactive) | 35 µM (inactive) | 11.2 µM (inactive) | 3.92 µM (inactive) | 4.22 µM (inactive) | 20.8 µM (inactive) | 13.8 µM (inactive) | 21.5 µM (inactive) | 18.5 µM (inactive) | 21.5 µM (inactive) | 27.2 µM (inactive) | 11.1 µM (inactive)
COC(=O)C1SC(N(C)c2ccccc2)=NC12c1ccccc1Nc1ccccc12 (stereo unspecified) | 15.8 µM (inactive) | 20.7 µM (inactive) | 13.6 µM | 20.5 µM (inactive) | 22.4 µM (inactive) | 12.9 µM (inactive) | 10.8 µM (inactive) | 15.3 µM (inactive) | 14.1 µM (inactive) | 25.3 µM (inactive) | 13.4 µM (inactive) | 6.71 µM (inactive) | 12.7 µM (inactive) | 31 µM (inactive) | 13.6 µM (inactive) | 39.8 µM (inactive) | 17.2 µM (inactive) | 20.7 µM (inactive) | 23.9 µM (inactive) | 27.5 µM (inactive)
CCOC(=O)NC1CN2CCC1CC2 (stereo unspecified) | > 100 µM (inactive) | > 100 µM (inactive) | > 100 µM | > 100 µM (inactive) | > 100 µM (inactive) | > 100 µM (inactive) | > 100 µM (inactive) | > 100 µM (inactive) | > 100 µM (inactive) | > 100 µM (inactive) | > 100 µM (inactive) | > 100 µM (inactive) | > 100 µM (inactive) | > 100 µM (inactive) | > 100 µM (inactive) | > 100 µM (inactive) | > 100 µM (inactive) | > 100 µM (inactive) | > 100 µM (inactive) | > 100 µM (inactive)
O=C(NNC(=S)Nc1ccccc1)c1ccccc1Nc1ccccc1C(=O)NNC(=S)Nc1ccccc1 | 19.8 µM (inactive) | 42.8 µM (inactive) | 29.5 µM | 16.9 µM (inactive) | 19.6 µM (inactive) | 26.3 µM (inactive) | 20 µM (inactive) | 43.6 µM (inactive) | 8.53 µM (inactive) | 16.8 µM (inactive) | 16.5 µM (inactive) | 76.4 µM (inactive) | 35.5 µM (inactive) | 31.2 µM (inactive) | 18.9 µM (inactive) | 30.1 µM (inactive) | 20.9 µM (inactive) | 24.5 µM (inactive) | 17.7 µM (inactive) | 19.5 µM (inactive)
COC(=O)C(CCc1ccccc1I)C1=CCC2(CC1)OCCO2 (stereo unspecified) | 33.6 µM (inactive) | > 100 µM (inactive) | 34.1 µM | 33.6 µM (inactive) | – | 15 µM (inactive) | 65.8 µM (inactive) | 36.2 µM (inactive) | 30.4 µM (inactive) | 15.7 µM (inactive) | 18.7 µM (inactive) | 14 µM (inactive) | 0.0435 µM (active) | 79.3 µM (inactive) | 30.7 µM (inactive) | > 100 µM (inactive) | 36.9 µM (inactive) | > 100 µM (inactive) | 36.3 µM (inactive) | 61.8 µM (inactive)
COc1ccccc1NC(=O)C1=C(C)NC(C)=C(C(=O)Nc2ccccc2OC)C1c1ccc(C2C(C(=O)Nc3ccccc3OC)=C(C)NC(C)=C2C(=O)Nc2ccccc2OC)cc1 | 2.51 µM (inactive) | 6.12 µM (inactive) | 2.72 µM | 1.95 µM (inactive) | 1.79 µM (inactive) | 2.84 µM (inactive) | 2.78 µM (inactive) | 1.53 µM (inactive) | 3.29 µM (inactive) | 3.22 µM (inactive) | 1.8 µM (inactive) | 0.813 µM (active) | 1.46 µM (inactive) | 2.88 µM (inactive) | 2.39 µM (inactive) | 13 µM (inactive) | 1.53 µM (inactive) | 3.52 µM (inactive) | 3.89 µM (inactive) | 2.52 µM (inactive)
N#C/C1=C(\N)CCSSSC1 | 34.5 µM (inactive) | 28.9 µM (inactive) | 27.9 µM | 54.8 µM (inactive) | 36.3 µM (inactive) | 26.1 µM (inactive) | 23.6 µM (inactive) | 33.7 µM (inactive) | 32.1 µM (inactive) | 53.1 µM (inactive) | 20.9 µM (inactive) | 48.9 µM (inactive) | > 10 µM (inactive) | 41.7 µM (inactive) | 32.1 µM (inactive) | 52.5 µM (inactive) | 19.6 µM (inactive) | 33.6 µM (inactive) | 37.2 µM (inactive) | 31.4 µM (inactive)
Cc1cc(N(CC(C)Br)CC(C)Br)ccc1/N=N/c1ccccc1C(=O)O (stereo unspecified) | 4.61 µM (inactive) | 1.67 µM (inactive) | 8.81 µM | 1.15 µM (inactive) | 4.72 µM (inactive) | 3.19 µM (inactive) | 0.454 µM (active) | 2.62 µM (inactive) | 2.24 µM (inactive) | 2.74 µM (inactive) | 3.03 µM (inactive) | 19.6 µM (inactive) | 6.05 µM (inactive) | 2.79 µM (inactive) | 3.81 µM (inactive) | 13.1 µM (inactive) | 0.948 µM (active) | 4.52 µM (inactive) | 9.04 µM (inactive) | 4.8 µM (inactive)
Cc1ccc([N+](=O)[O-])cc1S(=O)(=O)Nc1ccc(C2=NN(S(=O)(=O)c3cc([N+](=O)[O-])ccc3C)C(c3ccccc3)C2)cc1 (stereo unspecified) | 17.7 µM (inactive) | 16.5 µM (inactive) | 30.9 µM | 22.2 µM (inactive) | 28.2 µM (inactive) | 26.3 µM (inactive) | 21.6 µM (inactive) | 32 µM (inactive) | 35.8 µM (inactive) | 51.2 µM (inactive) | 15.7 µM (inactive) | 36.1 µM (inactive) | 35.6 µM (inactive) | 31.8 µM (inactive) | 24.2 µM (inactive) | 27.4 µM (inactive) | 21.7 µM (inactive) | 54.2 µM (inactive) | 36.4 µM (inactive) | 29.8 µM (inactive)
CCN1CCN(c2nc3ccccc3c3c2CCOc2ccccc2-3)CC1 | 17.2 µM (inactive) | > 39.3 µM (inactive) | 16.6 µM | 18.6 µM (inactive) | > 55.3 µM (inactive) | 15 µM (inactive) | 27.2 µM (inactive) | 2.85 µM (inactive) | 28.8 µM (inactive) | > 45.1 µM (inactive) | 26.4 µM (inactive) | 21.3 µM (inactive) | 1.05 µM (active) | > 61.2 µM (inactive) | > 62.5 µM (inactive) | > 47.8 µM (inactive) | 27.4 µM (inactive) | > 47.1 µM (inactive) | 39.1 µM (inactive) | 32.9 µM (inactive)
CC(=O)O[C@H]1C(=O)[C@@]2(C)C(C(OC(=O)c3ccccc3)[C@]3(O)C[C@H](OC(=O)C(OC(=O)CCCC(=O)NCCCN(C)C)C(NC(=O)c4ccccc4)c4ccccc4)C(C)=C1C3(C)C)C1(OC(C)=O)COC1C[C@@H]2O (stereo partly specified) | < 0.01 µM (active) | 0.0607 µM (active) | 0.406 µM | < 0.01 µM (active) | < 0.0122 µM (active) | < 0.01 µM (active) | < 0.01 µM (active) | < 0.01 µM (active) | 2.19 µM (inactive) | < 0.0139 µM (active) | < 0.01 µM (active) | < 0.01 µM (active) | < 0.01 µM (active) | 0.652 µM (active) | < 0.01 µM (active) | 0.0141 µM (active) | 0.02 µM (active) | 0.495 µM (active) | 0.0152 µM (active) | < 0.01 µM (active)
CC(C)(C)c1cc(C=C(C#N)C#N)cc(C(C)(C)C)c1O [TYRPHOSTIN A9] | 0.439 µM (active) | 0.277 µM (active) | 0.366 µM | 0.456 µM (active) | 0.191 µM (active) | 0.376 µM (active) | 0.171 µM (active) | 0.396 µM (active) | 0.0527 µM (active) | 4.03 µM (inactive) | 0.126 µM (active) | 0.33 µM (active) | 0.329 µM (active) | 0.356 µM (active) | 0.809 µM (active) | – | 0.455 µM (active) | 1.34 µM (inactive) | 0.392 µM (active) | 0.692 µM (active)
CC/C=C\C=C/C(=O)N/C=C/CCC | > 100 µM (inactive) | 23.5 µM (inactive) | > 100 µM | 23.3 µM (inactive) | > 100 µM (inactive) | – | > 100 µM (inactive) | 33.3 µM (inactive) | 27.7 µM (inactive) | > 100 µM (inactive) | 17.5 µM (inactive) | 4.27 µM (inactive) | > 100 µM (inactive) | > 100 µM (inactive) | > 100 µM (inactive) | > 100 µM (inactive) | – | > 100 µM (inactive) | > 100 µM (inactive) | > 100 µM (inactive)
